Results from patent publication EP0527889B1, “QUINOLIZINONE TYPE COMPOUNDS” (priority 1990, dated 1991).
Converted amounts (≈) assume the structure as drawn.

Assays:
[1] = test system: Staphylococcus aureus NCTC 10649; test: In vivo antibacterial activity in mice (protection from lethal intraperitoneal infection); conditions: NCTC10649, 144 h, S. aureus, CF-1 female mice infected intraperitoneally with 100 times the LD50, treated at 1 and 5 hr after infection, cumulative mortalities on the sixth day
Procedure: The in vivo antibacterial activity of the compounds of the present invention was determined as follows: Aqueous solutions of the test compounds were prepared by dissolving the compound in distilled water, except for the compounds of examples 169 and 170 which were dissolved in a solution of 2% DMSO in distilled water.
After 18 hr incubation, a culture of Staphylococcus aureus NCTC 10649 was serially diluted by using 10-fold dilutions in 5% (w/v) hog gastric mucin. Cultures (0.5 mL) in a dilution from 10^-1 to 10^-8 were injected intraperitoneally into CF-1 female mice weighing approximately 20g. The LD50 (median lethal dose) for the test organism was calculated from the cumulative mortalities on the sixth day by the using the Reed and Muench procedure (Reed, L.J., and H. Muench, Amer. J. Hygiene, 27, 493 (1938)).
The above 18 hr culture was diluted in 5% (w/v) hog gastric mucin to obtain 100 times the LD50, and 0.5 mL was injected intraperitoneally into mice. The mice were treated subcutaneously (sc) or orally (po) with a specific amount of the test compound divided equally to be administered at 1 and 5 hr after infection. A group of 10 animals each for at least three dose levels was thus treated, and the deaths were recorded daily for 6 days. Ten mice were left untreated as infection control. ED50 values were calculated from the cumulative mortalities on the sixth day after infection by using the trimmed version of the Logit method ( Hamilton, M.A., R.C. Russo, and R.V. Thurston, Environ. Sci. Technol. 11, 714 (1977)).

[2] = test system: Staphylococcus aureus 1775; test: In vitro antibacterial activity, MIC by agar dilution; format: cell-based; conditions: BHI agar, 35-37°C, 20-24 hours, unit assumed
Procedure: (§1) Each plate was inoculated with 1:100 (or 1:10 for slow growing strains, primarily Micrococcus and Streptococcus) dilutions of up to 32 different microorganisms, using a Steers replicator block calibrated to deliver approximately 10^4 colony forming units (CFUs). The inoculated plates were incubated at from about 35°C to about 37°C for approximately 20-24 hours. In addition, a control plate using BHI agar containing no test compound was prepared and incubated at the beginning and at the end of each test. Ciprofloxacin was used as the control antibiotic.
(§2) The MIC was defined as the lowest concentration of test compound yielding no growth (a slight haze or sparsely isolated colonies at the inoculum spot) as compared to the growth control containing no test compound.

Pseudomonas cepacia 296I = test: as above; format: cell-based; conditions: BHI agar, 35-37°C, 20-24 hours, unit assumed
Procedure: as §1, §2

[3] = test system: Streptococcus bovis A5169; test: as above; format: cell-based; conditions: BHI agar, 35-37°C, 20-24 hours, unit assumed
Procedure: as §1, §2

Escherichia coli DC-2 = test: as above; format: cell-based; conditions: BHI agar, 35-37°C, 20-24 hours, unit assumed
Procedure: as §1, §2

[4] = test system: Pseudomonas aeruginosa BMH10; test: as above; format: cell-based; conditions: BHI agar, 35-37°C, 20-24 hours, unit assumed
Procedure: as §1, §2

[5] = test system: Staphylococcus aureus NCTC 10649; test: as above; format: cell-based; conditions: BHI agar, 35-37°C, 20-24 hours, unit assumed
Procedure: as §1, §2

[6] = test system: Providencia stuartii CMX 640; test: as above; format: cell-based; conditions: BHI agar, 35-37°C, 20-24 hours, unit assumed
Procedure: as §1, §2

[7] = test system: Acinetobacter calcoaceticus CMX 669; test: as above; format: cell-based; conditions: BHI agar, 35-37°C, 20-24 hours, unit assumed
Procedure: as §1, §2

[8] = test system: Micrococcus luteus ATCC 9341; test: as above; format: cell-based; conditions: BHI agar, 35-37°C, 20-24 hours, unit assumed
Procedure: as §1, §2

[9] = test system: Streptococcus pyrogenes EES61; test: as above; format: cell-based; conditions: BHI agar, 35-37°C, 20-24 hours, unit assumed
Procedure: as §1, §2

[10] = test system: Pseudomonas aeruginosa 5263; test: as above; format: cell-based; conditions: BHI agar, 35-37°C, 20-24 hours, unit assumed
Procedure: as §1, §2

[11] = test system: Enterobacter aerogenes ATCC 13048; test: as above; format: cell-based; conditions: BHI agar, 35-37°C, 20-24 hours, unit assumed
Procedure: as §1, §2

[12] = test system: Pseudomonas aeruginosa K799/61; test: as above; format: cell-based; conditions: BHI agar, 35-37°C, 20-24 hours, unit assumed
Procedure: as §1, §2

[13] = test system: Staphylococcus aureus A5177; test: as above; format: cell-based; conditions: BHI agar, 35-37°C, 20-24 hours, unit assumed
Procedure: as §1, §2

[14] = test system: Streptococcus pyrogenes CONST; test: as above; format: cell-based; conditions: BHI agar, 35-37°C, 20-24 hours, unit assumed
Procedure: as §1, §2

Escherichia coli H560 = test: as above; format: cell-based; conditions: BHI agar, 35-37°C, 20-24 hours, unit assumed
Procedure: as §1, §2

Escherichia coli KNK 437 = test: as above; format: cell-based; conditions: BHI agar, 35-37°C, 20-24 hours, unit assumed
Procedure: as §1, §2

[15] = test system: Micrococcus luteus ATCC 4698; test: as above; format: cell-based; conditions: BHI agar, 35-37°C, 20-24 hours, unit assumed
Procedure: as §1, §2

[16] = test system: Enterococcus faecium ATCC 8043; test: as above; format: cell-based; conditions: BHI agar, 35-37°C, 20-24 hours, unit assumed
Procedure: as §1, §2

[17] = test system: Streptococcus agalactaciae CMX 508; test: as above; format: cell-based; conditions: BHI agar, 35-37°C, 20-24 hours, unit assumed
Procedure: as §1, §2

[18] = test system: Staphylococcus aureus ATCC 6538P; test: as above; format: cell-based; conditions: BHI agar, 35-37°C, 20-24 hours, unit assumed
Procedure: as §1, §2

[19] = test system: Staphylococcus epidermidis 3519; test: as above; format: cell-based; conditions: BHI agar, 35-37°C, 20-24 hours, unit assumed
Procedure: as §1, §2

Escherichia coli JUHL = test: as above; format: cell-based; conditions: BHI agar, 35-37°C, 20-24 hours, unit assumed
Procedure: as §1, §2

[20] = test system: Pseudomonas aeruginosa K799/WT; test: as above; format: cell-based; conditions: BHI agar, 35-37°C, 20-24 hours, unit assumed
Procedure: as §1, §2

[21] = test system: Staphylococcus aureus A-5278; test: as above; format: cell-based; conditions: BHI agar, 35-37°C, 20-24 hours, unit assumed
Procedure: as §1, §2

[22] = test system: Pseudomonas aeruginosa 2862; test: as above; format: cell-based; conditions: BHI agar, 35-37°C, 20-24 hours, unit assumed
Procedure: as §1, §2

[23] = test system: Pseudomonas aeruginosa A5007; test: as above; format: cell-based; conditions: BHI agar, 35-37°C, 20-24 hours, unit assumed
Procedure: as §1, §2

[24] = test system: Klebsiella pneumoniae ATCC 8045; test: as above; format: cell-based; conditions: BHI agar, 35-37°C, 20-24 hours, unit assumed
Procedure: as §1, §2

Escherichia coli SS = test: as above; format: cell-based; conditions: BHI agar, 35-37°C, 20-24 hours, unit assumed
Procedure: as §1, §2

[25] = test system: Streptococcus pyrogenes 2548 INDUC; test: as above; format: cell-based; conditions: BHI agar, 35-37°C, 20-24 hours, unit assumed
Procedure: as §1, §2

[26] = test system: Staphylococcus aureus CMX 553; test: as above; format: cell-based; conditions: BHI agar, 35-37°C, 20-24 hours, unit assumed
Procedure: as §1, §2

[27] = test system: Staphylococcus aureus 642A; test: as above; format: cell-based; conditions: BHI agar, 35-37°C, 20-24 hours, unit assumed
Procedure: as §1, §2

With `CC(=O)N[C@H]1C[C@H](C)N(c2nc3c(-c4ccc(F)cc4F)cc(C(=O)O)c(=O)n3cc2F)C1` [Example 169, 2-((2S,4S)-4-Acetamido-2-methylpyrrolidin-1-yl)-9-(2,4-difluorophenyl)-3-fluoro-6H-6-oxopyrido[1,2-a]pyrimidine-7-carboxylic acid] the ED50 ([1]; po) was greater than 48 mg/kg, the ED50 ([1]; sc) was 7.5 mg/kg and the MIC values [2] was 25 µg/mL (≈ 54.3 µM). The MIC values (Pseudomonas cepacia 296I) was 25 µg/mL (≈ 54.3 µM), the MIC values [3] was 3.1 µg/mL (≈ 6.73 µM) and the MIC values (Escherichia coli DC-2) was 12.5 µg/mL (≈ 27.1 µM). The MIC values [4] was 3.1 µg/mL (≈ 6.73 µM), the MIC values [5] was 0.2 µg/mL (≈ 0.434 µM) and the MIC values [6] was 25 µg/mL (≈ 54.3 µM). The MIC values [7] was 3.1 µg/mL (≈ 6.73 µM), the MIC values [8] was 3.1 µg/mL (≈ 6.73 µM) and the MIC values [9] was 0.78 µg/mL (≈ 1.69 µM). The MIC values [10] was greater than 100 µg/mL, the MIC values [11] was 3.1 µg/mL (≈ 6.73 µM) and the MIC values [12] was 0.39 µg/mL (≈ 0.847 µM). It also gave an MIC values [13] of 0.2 µg/mL (≈ 0.434 µM), an MIC values [14] of 0.39 µg/mL (≈ 0.847 µM) and an MIC values (Escherichia coli H560) of 0.78 µg/mL (≈ 1.69 µM). It also gave an MIC values (Escherichia coli KNK 437) of 6.2 µg/mL (≈ 13.5 µM), an MIC values [15] of 0.39 µg/mL (≈ 0.847 µM) and an MIC values [16] of 1.56 µg/mL (≈ 3.39 µM). For the same compound, the MIC values [17] was 0.78 µg/mL (≈ 1.69 µM), the MIC values [18] was 0.1 µg/mL (≈ 0.217 µM) and the MIC values [19] was 0.39 µg/mL (≈ 0.847 µM). It also gave an MIC values (Escherichia coli JUHL) of 0.78 µg/mL (≈ 1.69 µM), an MIC values [20] of 3.1 µg/mL (≈ 6.73 µM) and an MIC values [21] of 0.2 µg/mL (≈ 0.434 µM). It also gave an MIC values [22] greater than 100 µg/mL, an MIC values [23] of 3.1 µg/mL (≈ 6.73 µM) and an MIC values [24] of 0.39 µg/mL (≈ 0.847 µM). It also gave an MIC values (Escherichia coli SS) of 0.005 µg/mL (≈ 0.0109 µM), an MIC values [25] of 0.39 µg/mL (≈ 0.847 µM) and an MIC values [26] of 0.39 µg/mL (≈ 0.847 µM). The MIC values [27] was 0.39 µg/mL (≈ 0.847 µM).
